In ChEMBL document CHEMBL4622963, “Optimization of Nicotinamides as Potent and Selective IRAK4 Inhibitors with Efficacy in a Murine Model of Psoriasis” (ACS Med Chem Lett, 2020):

Assays:
[1] = molecular target: T1, Interleukin-1 receptor-associated kinase 4 (Homo sapiens, UniProt Q9NWZ3); assay: Inhibition of IRAK4 (unknown origin) using FL-IPTSPITTTYFFFKKK peptide and ATP as substrate incubated for 60 mins by fluorescence based caliper assay
T1 sequence (Q9NWZ3 whole entry): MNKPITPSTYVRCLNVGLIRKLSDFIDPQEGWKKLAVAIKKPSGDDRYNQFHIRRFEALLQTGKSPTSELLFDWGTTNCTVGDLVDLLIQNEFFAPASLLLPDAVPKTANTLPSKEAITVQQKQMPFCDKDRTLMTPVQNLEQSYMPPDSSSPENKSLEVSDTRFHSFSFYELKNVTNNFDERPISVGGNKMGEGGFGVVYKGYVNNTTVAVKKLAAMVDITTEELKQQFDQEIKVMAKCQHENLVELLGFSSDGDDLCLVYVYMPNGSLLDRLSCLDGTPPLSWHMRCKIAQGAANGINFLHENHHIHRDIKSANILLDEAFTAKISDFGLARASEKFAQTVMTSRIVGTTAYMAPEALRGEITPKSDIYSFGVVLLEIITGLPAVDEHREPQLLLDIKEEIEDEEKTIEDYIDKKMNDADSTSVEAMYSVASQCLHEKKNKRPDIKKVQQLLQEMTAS

[2] = Stability in human liver microsomes assessed as parent compound remaining; type: ADME, Microsome
[3] = organism: Homo sapiens; assay: Selectivity index, ratio of IC50 for recombinant N-terminal GST-tagged human cKit (544 to end residues) expressed in baculovirus infected Sf21 cells to IC50 for IRAK4 (unknown origin)
[4] = molecular target: Mast/stem cell growth factor receptor Kit (Homo sapiens, UniProt P10721); assay: Inhibition of recombinant N-terminal GST-tagged human cKit (544 to end residues) expressed in baculovirus infected Sf21 cells
Chain of Mast/stem cell growth factor receptor Kit (P10721 whole entry, the tested form may be a part): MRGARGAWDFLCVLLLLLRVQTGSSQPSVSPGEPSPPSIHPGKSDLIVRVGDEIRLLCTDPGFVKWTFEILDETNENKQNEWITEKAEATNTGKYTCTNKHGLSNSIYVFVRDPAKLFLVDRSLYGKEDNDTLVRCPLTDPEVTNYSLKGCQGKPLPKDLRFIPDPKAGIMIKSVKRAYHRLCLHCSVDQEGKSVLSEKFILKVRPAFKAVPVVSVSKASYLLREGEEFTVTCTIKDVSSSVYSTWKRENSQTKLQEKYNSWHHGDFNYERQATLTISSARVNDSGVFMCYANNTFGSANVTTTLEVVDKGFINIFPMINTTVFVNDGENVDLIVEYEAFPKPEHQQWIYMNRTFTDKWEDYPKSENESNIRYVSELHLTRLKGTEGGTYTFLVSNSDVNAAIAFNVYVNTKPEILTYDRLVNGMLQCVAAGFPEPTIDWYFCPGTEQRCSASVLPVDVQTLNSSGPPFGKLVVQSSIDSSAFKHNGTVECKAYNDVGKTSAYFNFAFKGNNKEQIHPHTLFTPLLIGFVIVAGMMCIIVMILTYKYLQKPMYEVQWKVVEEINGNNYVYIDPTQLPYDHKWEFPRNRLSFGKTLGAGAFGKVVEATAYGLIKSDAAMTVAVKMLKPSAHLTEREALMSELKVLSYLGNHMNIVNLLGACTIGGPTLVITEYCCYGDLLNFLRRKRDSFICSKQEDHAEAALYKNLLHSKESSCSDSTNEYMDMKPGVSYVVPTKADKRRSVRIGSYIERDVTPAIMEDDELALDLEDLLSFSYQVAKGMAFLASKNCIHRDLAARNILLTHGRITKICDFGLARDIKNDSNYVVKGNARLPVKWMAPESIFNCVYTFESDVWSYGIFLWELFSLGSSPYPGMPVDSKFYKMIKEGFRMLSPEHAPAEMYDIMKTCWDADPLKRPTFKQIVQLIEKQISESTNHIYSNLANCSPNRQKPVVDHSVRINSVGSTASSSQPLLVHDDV

[5] = molecular target: T2, Tyrosine-protein kinase receptor TYRO3 (Homo sapiens, UniProt Q06418); assay: Inhibition of human wild type partial length TYRO3 (497 to 814 residues) expressed in bacterial expression system
T2 sequence (Q06418 whole entry): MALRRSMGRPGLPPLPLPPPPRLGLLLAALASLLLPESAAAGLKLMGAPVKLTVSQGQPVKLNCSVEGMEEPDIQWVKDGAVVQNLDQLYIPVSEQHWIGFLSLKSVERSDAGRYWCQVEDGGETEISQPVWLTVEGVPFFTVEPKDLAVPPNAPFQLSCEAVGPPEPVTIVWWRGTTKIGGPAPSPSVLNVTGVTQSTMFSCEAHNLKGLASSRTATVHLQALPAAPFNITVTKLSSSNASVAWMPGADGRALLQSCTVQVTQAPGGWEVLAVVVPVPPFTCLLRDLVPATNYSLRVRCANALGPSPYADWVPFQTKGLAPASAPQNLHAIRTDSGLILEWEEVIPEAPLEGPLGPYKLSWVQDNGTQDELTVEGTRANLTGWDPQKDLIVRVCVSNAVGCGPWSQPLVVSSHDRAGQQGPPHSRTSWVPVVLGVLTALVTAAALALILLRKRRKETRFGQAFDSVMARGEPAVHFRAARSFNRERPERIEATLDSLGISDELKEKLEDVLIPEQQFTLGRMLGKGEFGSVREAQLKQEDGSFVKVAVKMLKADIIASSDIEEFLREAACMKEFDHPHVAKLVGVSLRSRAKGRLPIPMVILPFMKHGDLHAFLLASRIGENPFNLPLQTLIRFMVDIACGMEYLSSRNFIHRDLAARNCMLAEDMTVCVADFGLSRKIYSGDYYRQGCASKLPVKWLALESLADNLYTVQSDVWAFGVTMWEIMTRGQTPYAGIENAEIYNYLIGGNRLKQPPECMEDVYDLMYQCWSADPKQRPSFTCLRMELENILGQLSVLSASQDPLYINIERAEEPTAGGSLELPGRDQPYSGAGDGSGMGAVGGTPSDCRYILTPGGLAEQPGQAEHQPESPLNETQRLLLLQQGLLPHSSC

[6] = Permeability across apical to basolateral side in human Caco2 cells; settings: Caco-2
[7] = Volume of distribution at steady state in mouse at 2 mg/kg, iv administered as infusion or 5 mg/kg, po via gavage measured up to 24 hrs by LC-MS analysis; type: ADME, organism-based; settings: in vivo, read-out: Vdss
[8] = Oral bioavailability in mouse at 5 mg/kg administered via gavage measured up to 24 hrs by LC-MS analysis; type: ADME, organism-based; settings: in vivo
[9] = molecular target: T3, Interleukin-1 receptor-associated kinase 4 (Mus musculus) (UniProt Q8R4K2); assay: In vivo Inhibition of IRAK4 in LTA-treated BALB/c mouse assessed as suppression of IL-6 level in serum at 1 mg/kg by ELISA relative to control; type: functional, organism-based
T3 sequence (whole entry): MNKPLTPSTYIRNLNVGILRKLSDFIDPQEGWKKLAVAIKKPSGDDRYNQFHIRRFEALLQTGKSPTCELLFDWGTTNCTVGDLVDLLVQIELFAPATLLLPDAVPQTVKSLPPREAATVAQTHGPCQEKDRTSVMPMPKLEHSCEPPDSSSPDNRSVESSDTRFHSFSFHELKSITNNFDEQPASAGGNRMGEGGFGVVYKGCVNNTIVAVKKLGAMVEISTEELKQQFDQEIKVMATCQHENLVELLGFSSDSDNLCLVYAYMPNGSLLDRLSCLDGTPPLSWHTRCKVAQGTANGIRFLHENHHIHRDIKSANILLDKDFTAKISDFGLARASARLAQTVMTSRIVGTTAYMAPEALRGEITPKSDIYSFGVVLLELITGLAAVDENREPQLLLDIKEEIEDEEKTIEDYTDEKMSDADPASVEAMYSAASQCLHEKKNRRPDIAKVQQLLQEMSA

[10] = molecular target: T3, Interleukin-1 receptor-associated kinase 4 (Mus musculus); assay: In vivo Inhibition of IRAK4 in LTA-treated BALB/c mouse assessed as suppression of IL-6 level in serum at 3 mg/kg by ELISA relative to control; type: functional, organism-based
[11] = molecular target: T3, Interleukin-1 receptor-associated kinase 4 (Mus musculus); assay: In vivo Inhibition of IRAK4 in LTA-treated BALB/c mouse assessed as suppression of IL-6 level in serum at 10 mg/kg by ELISA relative to control; type: functional, organism-based
[12] = Toxicity in po dosed imiquimod-induced C57BL/6 mouse model of psoriasis assessed as drug tolerability; type: organism-based; settings: in vivo
[13] = Drug uptake in imiquimod-induced C57BL/6 mouse model of psoriasis at 1 mg/kg, po dosed via gavage twice daily and measured after 2 hrs by LC-MS analysis; type: ADME, organism-based; settings: in vivo, read-out: Drug uptake
[14] = Drug uptake in imiquimod-induced C57BL/6 mouse model of psoriasis at 3 mg/kg, po dosed via gavage twice daily and measured after 2 hrs by LC-MS analysis; type: ADME, organism-based; settings: in vivo, read-out: Drug uptake
[15] = Drug uptake in imiquimod-induced C57BL/6 mouse model of psoriasis at 10 mg/kg, po dosed via gavage twice daily and measured after 2 hrs by LC-MS analysis; type: ADME, organism-based; settings: in vivo, read-out: Drug uptake
[16] = organism: Mus musculus; assay: animal or person; settings: C57BL/6, po, 144 h, read-out: INH
[17] = organism: Mus musculus; assay: animal or person; settings: C57BL/6, po, 144 h, read-out: INH; remark: listed apart in the source

In the case of `CC(C)Nc1cc(Nc2nc3ccnn3cc2F)ncc1C(=O)NC[C@@H](F)C(C)(C)O`, the IC50 [1] is reported as 3.4 nM, the Stability [2] is reported as 93% and the Ratio IC50 [3] is reported as greater than 590. It also gave an IC50 [4] greater than 2000 nM, an IC50 [5] of 980 nM and a Papp A→B [6] of 21.5 ×10⁻⁶ cm/s. For the same compound, the Vd [7] was 2 L/kg, the bioavailability [8] was greater than 100% and the inhibition [9] was 68%. For the same compound, the inhibition [10] was 87%, the inhibition [11] was 93% and the Activity [12] was “Non-Toxic”. For the same compound, the concentration at 2 h [13] was 400 nM, the concentration at 2 h [14] was 1950 nM and the concentration at 2 h [15] was 9400 nM. It also gave an inhibition in vivo at 1 mg/kg [16] of 17% and an inhibition in vivo at 10 mg/kg [17] of 43%.
